In ChEMBL document CHEMBL1158677, “New Diterpene Lactones from the Sponge Spongia matamata” (J Nat Prod, 1998) one finds Activity data, which are given here for one molecule.

In the data set the test system is Artemia. Put plainly: Toxicity in brine shrimp. The class given is organism-based. The settings on record: in vivo.

Regarding `C[C@]12CC(=O)O[C@@](C)(CO)[C@@H]1CC[C@@]1(C)c3cocc3CC[C@H]21`, the Activity result is reported as “Not Active”.
